Experimental data from US20140363406A1, “ESTROGEN METABOLITE LEVELS AND CYP1B1 POLYMORPHISMS IN LUNG CANCER DIAGNOSIS, PROGNOSIS, AND RISK ASSESSMENT” (Institute for Cancer Research d/b/a The Research Institute …, priority 2012, published 2014).

Molecular target: T1, CYP1B1 (Mus musculus, UniProt Q64429)
T1 sequence (Q64429 1-543): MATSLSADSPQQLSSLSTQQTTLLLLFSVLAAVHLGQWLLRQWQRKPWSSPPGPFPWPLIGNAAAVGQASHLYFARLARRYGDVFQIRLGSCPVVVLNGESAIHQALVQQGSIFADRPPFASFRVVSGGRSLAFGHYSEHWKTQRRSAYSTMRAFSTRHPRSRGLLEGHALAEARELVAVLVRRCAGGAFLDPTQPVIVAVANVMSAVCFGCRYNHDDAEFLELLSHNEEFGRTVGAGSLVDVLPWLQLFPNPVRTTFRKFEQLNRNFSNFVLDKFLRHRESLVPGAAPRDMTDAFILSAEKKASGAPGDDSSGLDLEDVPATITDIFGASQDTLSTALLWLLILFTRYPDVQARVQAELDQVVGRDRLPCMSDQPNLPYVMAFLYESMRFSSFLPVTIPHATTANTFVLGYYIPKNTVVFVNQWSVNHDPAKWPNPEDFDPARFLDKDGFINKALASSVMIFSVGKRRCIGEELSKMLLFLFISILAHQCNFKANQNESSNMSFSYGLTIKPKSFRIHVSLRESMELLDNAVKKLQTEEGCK
Experiment: Impact of Cyp1b1 deletion on lung estrogen/EM levels (Cyp1b1-KO vs Cyp1b1-WT 129SvJ mice), LC-MS2
Procedure: Animals. […] Smoke exposures were performed on female C57/B6 mice (1.5-2 years old) carrying a human APOE*4 transgene that were part of an atherosclerosis study at Duke University and fed a high-fat diet TD.88051. Animals had free access to food and water. All animal experimentation was approved by the Institutional Animal Care and Use Committees at Fox Chase Cancer Center and Duke University.
Genotyping. PCR-based genotyping of Cyp1b1 wild-type (Cyp1b1-WT) and knockout (Cyp1b1-K0) mice was performed using Choice Taq Blue DNA Polymerase Master mix (Denville Scientific, South Plainfield, N.J.) according to the following protocol: Wild-type primers—[…]
Lung tissue collection. Following euthanasia, the lungs were perfused by intracardiac injection with 30 ml phosphate buffered saline to flush out the blood. Perfused tissues were snap-frozen in liquid nitrogen and stored at −80° C. The accessory lobe of the lung was reserved for RNA extraction, whereas the remaining lobes were processed for estrogen metabolite analyses.
Sample preparation. Lung tissue samples (0.1-0.2 g per sample) from Cyp1b1-WT or Cyp1b1-KO mice (female and male, 12-14 weeks of age, n=4-5 per group) were thawed at room temperature, minced with scissors and transferred into 1.5 ml Eppendorf tubes. […] The tissue was homogenized on ice using a Tissue Tearor™ (Cole-Parmer, Vernon Hills, Ill.) at low and high speeds in two consecutive 15 s increments for a total of 30 s, and further sonicated on ice (five cycles of 10 s pulses with 10 s breaks between pulses). Eight milliliters of ethanol:acetone and […] each of stable isotope-labeled estrogen internal standards (0.32 ng/ml working standard solutions) were added to each tissue homogenate. The mixture was incubated on a rotator at room temperature for 1 h and centrifuged at 3000 ×g for 30 min. The ethanol:acetone tissue extract was transferred to a clean glass tube and dried under nitrogen gas at 60° C. for 60 min (Reacti-Vap III™, Pierce, Rockford, Ill.). The residue was redissolved in 4 ml of methanol, vortexed for 1 min, chilled at -80° C. for 1 h, returned to room temperature and centrifuged at 3000 × g for 20 min. The methanolic phase was transferred to a clean glass tube and dried under nitrogen gas. The residue was redissolved in 100 μl of ethanol and vortexed briefly. This step was followed by the addition of 1.5 ml of 100 mM sodium acetate buffer, pH 4.6, and 5 ml of dichloromethane to the residue and incubation at room temperature on a rotator for 30 min.
The extract was chilled at −80° C. for 10 min, returned to room temperature and centrifuged at 3000 × g for 20 min. The dichloromethane phase was transferred to a clean tube and dried. To each dried sample, 40 μl of 0.1 M sodium bicarbonate buffer, pH 9.0, and 40 μl of dansyl chloride solution (1 mg/ml in acetone) were added. After vortexing for 10 s, samples were heated at 70° C. (Reacti-Therm III™ Heating Module, Pierce, Rockford, Ill.) for 10 min to form the EM and SI-EM dansyl derivatives. All samples were centrifuged at 3000 ×g for 20 min and analyzed using LC-M5^2. The efficiency of extracting estrogen and its metabolites from the tissue cannot be measured accurately because a known amount of each metabolite cannot be placed in the tissue prior to extraction. Furthermore, the amount of estrogens/EM present at baseline is unknown.
LC-MS^2 analysis was performed using a Shimadzu Prominence UFLC system (Shimadzu Scientific Instruments, Columbia, Md.) coupled with a TSQ™ Quantum Ultra triple quadrupole mass spectrometer (Thermo Electron, San Jose, Calif.). The LC separation was carried out on a 50 mm long×2 mm […] column packed with 2.5 μm Synergi Hydro-RP particles (Phenomenex, Torrance, Calif.) maintained at 40° C. A 20 μl aliquot of each sample was injected onto the column.

## C[C@]12CC[C@@H]3c4cc(O)c(O)cc4CC[C@H]3[C@@H]1CCC2=O [2-OHE1, 2-hydroxyestrone]
Cyp1b1-KO mice
  percentage of total estrogen, male versus female (in words): no significant difference
females
  increase in lung level in Cyp1b1-KO compared with WT controls: 3 fold
males
  increase in lung level in Cyp1b1-KO compared with WT controls: 1.7 fold

## C[C@]12CC[C@@H]3c4ccc(O)c(O)c4CC[C@H]3[C@@H]1CCC2=O [4-OHE1, 4-hydroxyestrone]
Female Cyp1b1-KO vs WT
  decrease in lung level by deletion of Cyp1b1: 21 fold
females
  lung level in Cyp1b1-KO as % of WT controls: 4.7%
Male Cyp1b1-KO vs WT
  decrease in lung level by deletion of Cyp1b1: 14 fold
males
  lung level in Cyp1b1-KO as % of WT controls: 7.4%

## C[C@]12CC[C@@H]3c4ccc(O)c(O)c4CC[C@H]3[C@@H]1CC[C@@H]2O [4-OHE2, 4-hydroxyestradiol]
Both sexes
  lung level reduced in Cyp1b1-KO compared with Cyp1b1-WT controls: ~50%
females
  lung level reduced in Cyp1b1-KO compared with Cyp1b1-WT controls: 60%
males
  lung level reduced in Cyp1b1-KO compared with Cyp1b1-WT controls: 56%
